Laboratory results published in PMC5352699, “Synthesis and in vitro antitumor activity of (1E,4E)-1-aryl-5-(2-((quinazolin-4-yl)oxy)phenyl)-1,4-pentadien-3-one derivatives” (Chemistry Central Journal, 2017).

How the values were obtained:
[1] = test system: normal cell line NIH3T3 (mouse embryo fibroblast cell line); experiment: MTT assay, NIH3T3 normal cells; type: cell-based; settings: 72 h, read-out: Inhibition rates against different cells (%) NIH3T3
Procedure: (§1) The in vitro antitumor activity of the newly synthesized compounds 5a–5n were evaluated against a panel of three human cancer cell lines, including human gastric cancer cell line MGC-803, human prostate cancer cell line PC3, and human breast cancer cell line Bcap-37, and one normal cell line NIH3T3 (mouse embryo fibroblast cell line) by MTT method. Adriamycin (ADM) was chosen as a reference drug due to its availability and widespread use. Each experiment was repeated at least three times.
(§2) Human gastric cancer cell line MGC-803, human prostate cancer cell line PC3, and human breast cancer cell line Bcap-37 and one normal cell line NIH3T3 were obtained from Cell Bank of Type Culture Collection of Chinese Academy of Sciences (Shanghai, China). NIH3T3 was routinely maintained in a DMEM medium, while all the other cell lines were cultured in a 1640 medium. All the cells were grown in the medium supplemented with 10% FBS at 37 °C with 5% CO2.
(§3) The growth-inhibitory effects of the test compounds were determined on MGC-803, PC3, Bcap-37, and NIH3T3 cells. All cell types were seeded into 96-well plates at a density of 2 × 10^3 cells/well 100 μL of the proper culture medium and incubated with increasing concentrations of the compounds at 37 °C under cell culturing conditions. An MTT assay (Roche Molecular Biochemicals, 1465-007) was performed 72 h later according to the instructions provided by Roche. The precipitated formazan crystals were dissolved in SDS, and the absorbance was read at 595 nm with a microplate reader (BIO-RAD, model 680), which is directly proportional to the number of living cells in culture. The experiment was performed in triplicate. The percentage cytotoxicity was calculated using the formula. %Cytotoxicity=Controlabs-Blankabs-Testabs-Blankabs/Controlabs-Blankabs×100

[2] = test system: human breast cancer cell line Bcap-37; experiment: MTT assay, Bcap-37 cells; type: cell-based; settings: for inhibition at 10 µM: Bcap37, 10 μM, 72 h, read-out: Inhibition rates against different cells (%) Bcap-37; for IC50: Bcap37, 72 h after treatment
Procedure: as §1, §2, §3

[3] = test system: human prostate cancer cell line PC3; experiment: MTT assay, PC3 cells; type: cell-based; settings: for inhibition at 10 µM: PC-3, 10 μM, 72 h, read-out: Inhibition rates against different cells (%) PC3; for IC50: PC-3, 72 h after treatment
Procedure: as §1, §2, §3

[4] = test system: human gastric cancer cell line MGC-803; experiment: MTT assay, MGC-803 cells; type: cell-based; settings: for inhibition at 10 µM: 72 h, read-out: Inhibition rates against different cells (%) MGC-803; for IC50: 72 h after treatment
Procedure: as §1, §2, §3

melting point | IC50 [2] | IC50 [3] | IC50 [4] | SMILES | inhibition at 10 µM [1] | inhibition at 10 µM [2] | inhibition at 10 µM [3] | inhibition at 10 µM [4]
152 to 154 °C | 10.7 ± 0.62 µM | 9.36 ± 0.52 µM | 7.78 ± 0.48 µM | Cc1cccc2c(Oc3ccccc3/C=C/C(=O)/C=C/c3ccccc3Cl)ncnc12 [Compound 5i, (1E,4E)-1-(2-chlorophenyl)-5-(2-((8-methylquinazolin-4-yl)oxy)phenyl)penta-1,4-dien-3-one] | 14.4 ± 2.6% | 47.1 ± 2.6% | 65.1 ± 2.6% | 79.4 ± 2.4%
152 to 154 °C | 10.1 ± 0.67 µM | 8.12 ± 0.46 µM | 5.2 ± 0.51 µM | Cc1ccc2ncnc(Oc3ccccc3/C=C/C(=O)/C=C/c3ccccc3Cl)c2c1 [Compound 5b, (1E,4E)-1-(2-chlorophenyl)-5-(2-((6-methylquinazolin-4-yl)oxy)phenyl)penta-1,4-dien-3-one] | 15.4 ± 1.5% | 57.3 ± 2% | 78.7 ± 2.4% | 83.5 ± 1.5%
173 to 176 °C | 9.34 ± 0.52 µM | 7.85 ± 0.32 µM | 5.44 ± 0.45 µM | Cc1ccc2ncnc(Oc3ccccc3/C=C/C(=O)/C=C/c3ccc(Cl)cc3)c2c1 [Compound 5c, (1E,4E)-1-(4-chlorophenyl)-5-(2-((6-methylquinazolin-4-yl)oxy)phenyl)penta-1,4-dien-3-one] | 16.1 ± 2.7% | 54.2 ± 1.1% | 76.5 ± 1.7% | 79.2 ± 2.8%
 | 15.6 ± 0.51 µM | 11.7 ± 0.48 µM | 9.06 ± 0.4 µM | Cc1cccc2c(Oc3ccccc3/C=C/C(=O)/C=C/c3ccccc3F)ncnc12 [Compound 5h, (1E,4E)-1-(2-fluorophenyl)-5-(2-((8-methylquinazolin-4-yl)oxy)phenyl)penta-1,4-dien-3-one] | 13.4 ± 2.2% | 36.6 ± 2.7% | 43.7 ± 12.1% | 62.3 ± 1.4%
175 to 178 °C | 9.83 ± 0.46 µM | 9.08 ± 0.52 µM | 4.33 ± 0.35 µM | Cc1cccc2c(Oc3ccccc3/C=C/C(=O)/C=C/c3ccc(Cl)cc3Cl)ncnc12 [Compound 5l, (1E,4E)-1-(2,4-dichlorophenyl)-5-(2-((8-methylquinazolin-4-yl)oxy)phenyl)penta-1,4-dien-3-one] | 0.8 ± 1.6% | 54.6 ± 1% | 55.7 ± 1.5% | 61.2 ± 1.3%
161 to 163 °C | 12.1 ± 0.31 µM | 8.64 ± 0.47 µM | 6.42 ± 0.44 µM | Cc1cccc2c(Oc3ccccc3/C=C/C(=O)/C=C/c3ccc(Cl)cc3)ncnc12 [Compound 5j, (1E,4E)-1-(4-chlorophenyl)-5-(2-((8-methylquinazolin-4-yl)oxy)phenyl)penta-1,4-dien-3-one] | 41 ± 2.1% | 45.4 ± 2.2% | 71.9 ± 3.1% | 76.3 ± 0.8%
 | 7.52 ± 0.36 µM | 2.68 ± 0.43 µM | 1.72 ± 0.22 µM | Cc1ccc2ncnc(Oc3ccccc3/C=C/C(=O)/C=C/c3cc([N+](=O)[O-])ccc3Cl)c2c1 [Compound 5d, (1E,4E)-1-(2-chloro-5-nitrophenyl)-5-(2-((6-methylquinazolin-4-yl)oxy)phenyl)penta-1,4-dien-3-one] | 71.9 ± 1.4% | 58.5 ± 1.3% | 86.3 ± 0.8% | 87.5 ± 0.2%
 | 1.9 ± 0.25 µM | 1.01 ± 0.2 µM | 0.74 ± 0.24 µM | COc1cccc2c1C(=O)c1c(O)c3c(c(O)c1C2=O)C[C@@](O)(C(=O)CO)C[C@@H]3O[C@H]1C[C@H](N)[C@H](O)[C@H](C)O1 [ADM, Adriamycin, reference compound] | 100 ± 0.7% | 94.5 ± 0.9% | 91.2 ± 0.4% | 97.5 ± 1.2%
 | 11.7 ± 0.39 µM | 9.24 ± 0.46 µM | 7.69 ± 0.37 µM | Cc1ccc2ncnc(Oc3ccccc3/C=C/C(=O)/C=C/c3ccccc3F)c2c1 [Compound 5a, (1E,4E)-1-(2-fluorophenyl)-5-(2-((6-methylquinazolin-4-yl)oxy)phenyl)penta-1,4-dien-3-one] | 65.7 ± 1.3% | 44.1 ± 2.6% | 68.5 ± 2.3% | 71.9 ± 0.9%
